According to patent publication US20100086931A1, “METHOD FOR ASSAYING ACTION OF ANTITUMOR AGENT USING DECREASE IN GENE EXPRESSION LEVEL AS INDEX” (Eisai R&D Management Co., Ltd., priority 2007, published 2010):

Tested on: peripheral blood mononuclear cells (PBMC)
Experiment: Microarray analysis (Human Genome U133 plus 2.0 array) of mRNA expression in PBMC treated with compound A
Type: cell-based
Conditions: 10 nM, ratio to control
Source text: Since it is not easy to obtain a cancer tissue clinically, the measurement of the marker in hemocytes readily obtainable in peripheral blood would be more useful. Specifically blood was taken from a normal individual (volunteer) and peripheral blood mononuclear cells were purified and treated with compound A, followed by measurement of change in expression of the gene (mRNA) with the microarray (Human Genome […] plus 2.0 array: Affymetrix).
Ficoll-Paque PLUS solution (Amersham, 17-1440-02) was slowly added to the blood taken (with heparin added) from a healthy individual to form a layer underneath the blood (15 ml of Ficoll-Paque PLUS solution was added to 25 ml of blood). After the mixture was centrifuged at 1500 rpm for 30 min, the upper part containing platelets was removed and then a layer containing mononuclear cells was transferred to another tube. The cells were suspended in PBS and centrifuged at 1500 rpm for 5 min, followed by removal of the supernatant. After these steps were repeated twice, the cells were again suspended in RPMI1640 (containing 10% FBS). The number of the cells was then counted.
The cells were suspended in the medium to 5×10^6 cells/ml and plated 1 ml per well of a 24-well plate. Immediately, 111 μl of compound A (ten times more concentrated than the final concentrations) was added to the well (four wells per each concentration tested). The cells were then cultured in an incubator with 5% carbon dioxide gas at 37° C. Two or four hours later, the supernatant was collected and centrifuged at 1500 rpm for five minutes. TRI reagent (SIGMA) (1 ml) was added to each well of the plate from which the supernatant was removed to harvest the cells, which was added to the centrifuged pellet to dissolve. RNA was purified in accordance with the protocol of TRI reagent. RNA was further purified using RNeasy (QIAGEN). Absorbance at 260 nm was measured to quantify an amount of RNA.
A .cel file for each sample was obtained by using GeneChip Operating Software Ver.1.2 (Affymetrix). The RMA method was applied to ten of the .cel files obtained in the microarray experiment. Log signal intensity at a gene level was obtained by normalization of that at a probe level. By subtracting a control value from log signal intensity for each case, the log signal intensity was converted into a log signal ratio to the control. Genes were narrowed down in the basis of a log signal ratio, and a signal value. Specifically, among genes showing that the P value was 5% or less; the expression level in the untreated (control) is 100 or more by signal value; and the expression level when treated with 10 nM of compound A both for two and four hours decreased by 50% or more, genes of which expression level decreased to 25% or less upon the two-hour treatment were picked out. The software used is R2.2.1 (http://www.r-project.org/), affy package 1.8.1 (http://www.bioconductor.org).
Among genes showing, upon the treatment with compound A, that the P value was 5% or less; the expression level in the untreated (control) is 100 or more by signal value; and the expression level when treated with 10 nM of compound A both for two and four hours decreased by 50% or more, genes of which expression level decreased to 25% or less upon the two-hour treatment, and results thereof were shown in Table 2. For each gene evaluated, gene name (Gene Name), abbreviated name (Gene Symbol), accession number (Accession), alias name (Synonym), Probe set number in Human Genome U133 Plus 2.0 Array (Human Genome U133 Plus 2.0 Array Probeset ID), the expression level upon the two-hour treatment with E7107 (E7107 (2 h)), and the expression level upon the four-hour treatment with E7107 (E7107 (4 h)) were respectively shown in Table 2.

CCC(O)C(C)C1OC1CC(C)(O)/C=C/C=C(\C)C1OC(=O)CC(O)CCC(C)(O)C(OC(=O)N2CCN(C3CCCCCC3)CC2)/C=C/C1C (stereo not drawn) [E7107, (8E,12E,14E)-7-((4-Cycloheptylpiperazin-1-yl)carbonyl)oxy-3,6,16,21-tetrahydroxy-6,10,12,16,20-pentamethyl-18,19-epoxytricosa-8,12,14-trien-11-olide]
AHSA2 mRNA expression level (226665_at) (2 h): 0.21
ATXN1 mRNA expression level (242230_at) (2 h): 0.25
C13orf31 mRNA expression level (228937_at) (2 h): 0.19
C15orf48 mRNA expression level (223484_at) (2 h): 0.06
CCRL2//LOC642312 mRNA expression level (211434_s_at) (2 h): 0.22
CLEC5A mRNA expression level (219890_at) (2 h): 0.08
CSF2RA mRNA expression level (210340_s_at) (2 h): 0.10
CTSL1 mRNA expression level (202087_s_at) (2 h): 0.21
DHRS9 mRNA expression level (223952_x_at) (2 h): 0.25
DOK3 mRNA expression level (223553_s_at) (2 h): 0.23
FPRL2 mRNA expression level (230422_at) (2 h): 0.06
GNA15 mRNA expression level (205349_at) (2 h): 0.22
GPR84 mRNA expression level (223767_at) (2 h): 0.18
GTF2H1 mRNA expression level (202451_at) (2 h): 0.18
HNRPA2B1 mRNA expression level (225107_at) (2 h): 0.23
HPSE mRNA expression level (222881_at) (2 h): 0.18
IQCG mRNA expression level (235347_at) (2 h): 0.24
LOC51315 mRNA expression level (233329_s_at) (2 h): 0.21
MS4A7 mRNA expression level (224358_s_at) (2 h): 0.24
NLRP12 mRNA expression level (1554952_s_at) (2 h): 0.23
NRIP3 mRNA expression level (219557_s_at) (2 h): 0.07
NSMCE4A mRNA expression level (228506_at) (2 h): 0.24
OLR1 mRNA expression level (210004_at) (2 h): 0.05
RAPH1 mRNA expression level (225188_at) (2 h): 0.19
RBBP6 mRNA expression level (212781_at) (2 h): 0.23
SLC25A19 mRNA expression level (223222_at) (2 h): 0.18
SLC43A2 mRNA expression level (228918_at) (2 h): 0.17
TNFAIP6 mRNA expression level (206026_s_at) (2 h): 0.19
TNS1 mRNA expression level (221748_s_at) (2 h): 0.10
TRAPPC4 mRNA expression level (217959_s_at) (2 h): 0.18
Transcribed locus mRNA expression level (230098_at) (2 h): 0.22
WSB1 mRNA expression level (201294_s_at) (2 h): 0.20
ZCCHC6 mRNA expression level (220933_s_at) (2 h): 0.17
AHSA2 mRNA expression level (226665_at) (4 h): 0.15
ATXN1 mRNA expression level (242230_at) (4 h): 0.24
C13orf31 mRNA expression level (228937_at) (4 h): 0.11
C15orf48 mRNA expression level (223484_at) (4 h): 0.01
CCRL2//LOC642312 mRNA expression level (211434_s_at) (4 h): 0.35
CLEC5A mRNA expression level (219890_at) (4 h): 0.05
CSF2RA mRNA expression level (210340_s_at) (4 h): 0.06
CTSL1 mRNA expression level (202087_s_at) (4 h): 0.13
DHRS9 mRNA expression level (223952_x_at) (4 h): 0.31
DOK3 mRNA expression level (223553_s_at) (4 h): 0.26
FPRL2 mRNA expression level (230422_at) (4 h): 0.04
GNA15 mRNA expression level (205349_at) (4 h): 0.15
GPR84 mRNA expression level (223767_at) (4 h): 0.20
GTF2H1 mRNA expression level (202451_at) (4 h): 0.07
HNRPA2B1 mRNA expression level (225107_at) (4 h): 0.20
HPSE mRNA expression level (222881_at) (4 h): 0.29
IQCG mRNA expression level (235347_at) (4 h): 0.23
LOC51315 mRNA expression level (233329_s_at) (4 h): 0.13
MS4A7 mRNA expression level (224358_s_at) (4 h): 0.04
NLRP12 mRNA expression level (1554952_s_at) (4 h): 0.26
NRIP3 mRNA expression level (219557_s_at) (4 h): 0.29
NSMCE4A mRNA expression level (228506_at) (4 h): 0.18
OLR1 mRNA expression level (210004_at) (4 h): 0.02
RAPH1 mRNA expression level (225188_at) (4 h): 0.18
RBBP6 mRNA expression level (212781_at) (4 h): 0.17
SLC25A19 mRNA expression level (223222_at) (4 h): 0.20
SLC43A2 mRNA expression level (228918_at) (4 h): 0.08
TNFAIP6 mRNA expression level (206026_s_at) (4 h): 0.06
TNS1 mRNA expression level (221748_s_at) (4 h): 0.09
TRAPPC4 mRNA expression level (217959_s_at) (4 h): 0.07
Transcribed locus mRNA expression level (230098_at) (4 h): 0.14
WSB1 mRNA expression level (201294_s_at) (4 h): 0.17
ZCCHC6 mRNA expression level (220933_s_at) (4 h): 0.08
